# Several values for one entry are separate records, joined by “and”; a condition that tells them apart may be missing. Identical values can stand only once.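 Cells were grown in 96-well plates and exposed to each compound for 48 hours at five concentrations; endpoints were interpolated linearly between bracketing concentrations, or set to the highest concentration if not reached. GI50 is the concentration that inhibits growth by half. TGI denotes the concentration required for complete inhibition of growth.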
# Tests used:
# Test in all cases: DTP human tumour cell line panel, 48 h
# NCI-H23 lung = system: NCI-H23 lung
# M14 melanoma = system: M14 melanoma
# K-562 leukemia = system: K-562 leukemia
# NCI-H522 lung = system: NCI-H522 lung
# HL-60(TB) leukemia = system: HL-60(TB) leukemia
# KM12 colon = system: KM12 colon
# NCI-H460 lung = system: NCI-H460 lung
# SK-MEL-2 melanoma = system: SK-MEL-2 melanoma
# OVCAR-3 ovarian = system: OVCAR-3 ovarian
# OVCAR-4 ovarian = system: OVCAR-4 ovarian
Compound,GI50 (NCI-H23 lung) [µM],TGI (NCI-H23 lung) [µM],GI50 (M14 melanoma) [µM],TGI (M14 melanoma) [µM],GI50 (K-562 leukemia) [µM],TGI (K-562 leukemia) [µM],GI50 (NCI-H522 lung) [µM],TGI (NCI-H522 lung) [µM],GI50 (HL-60(TB) leukemia) [µM],TGI (HL-60(TB) leukemia),GI50 (KM12 colon),TGI (KM12 colon) [µM],GI50 (NCI-H460 lung) [µM],TGI (NCI-H460 lung) [µM],GI50 (SK-MEL-2 melanoma) [µM],TGI (SK-MEL-2 melanoma) [µM],GI50 (OVCAR-3 ovarian) [µM],TGI (OVCAR-3 ovarian) [µM],TGI (OVCAR-4 ovarian) [µM],GI50 (OVCAR-4 ovarian)
COc1cc(/C=C2\C[C@H]3[C@@H]4CC=C5C[C@@H](OC(C)=O)CC[C@]5(C)[C@H]4CC[C@]3(C)[C@H]2OC(C)=O)ccc1OCCN1CCCC1,10.1,19,8.56,30.4,4,12.6,18.1,> 50,10.3,20.6 µM,8.81 µM,17.7,10.2,23.1,20.2,> 50,10.9,23.6,–,–
C=C(CCCO)[C@@H]1CC[C@@](C)(O)[C@H]1C,–,> 100,–,–,–,> 100,–,> 100,–,–,–,> 100,–,> 100,–,> 100,–,> 100,> 100,–
O=C(/C=C/OC(=O)c1cccc(Cl)c1)c1ccc(Cl)cc1,41.7,> 100,34.6,> 100,34.5,> 100,> 93.3,> 100,–,–,> 74.6 µM,> 100,> 100,> 100,> 73.1,> 100,21.7,> 74,> 100,> 72.5 µM
O=[N+]([O-])c1cc2c([N+](=O)[O-])cccc2o1,–,37.6,–,24.9,–,–,–,1.92,–,–,–,34.5,–,> 100,–,25.4,–,21.8,3.63,–
COc1ccc(/C=C2\c3cc(OC)c(OC)c(OC)c3CC[C@@H]2O)cc1F,0.318,> 100,0.274,> 100,0.0865,> 100,0.156,0.639,–,–,0.373 µM,> 100,0.299,16.9,–,–,0.262,> 100,> 100,1.1 µM
CSCCC(C(=O)O)N(CC1(O)OCC(O)C(O)C1O)N=O (stereo not given),–,> 100,–,> 100,–,> 100,–,> 100,–,> 100 µM,–,> 100,–,> 100,–,> 100,–,> 100,–,–
C[Si](C)(C)C(Sc1ccccc1)(Sc1ccccc1)Sc1ccccc1,–,> 100,–,–,–,> 100,–,–,–,> 100 µM,–,> 100,–,> 100,–,> 100,–,–,> 100,–
CC1C2CC=CC(=O)[C@@]2(C)CCC12OCCO2 (stereo not given in full),–,> 100,–,> 100,–,> 100,–,> 100,–,–,–,> 100,–,> 100,–,> 100,–,> 100,> 100,–
Cn1cnc([N+](=O)[O-])c1Sc1nccc(=O)[nH]1,–,> 100,–,> 100,–,> 100,–,> 100,–,–,–,> 100,–,> 100,–,> 100,–,> 100,> 100,–
COCCn1cc(-c2csc(-c3c[nH]c4ccc(Br)cc34)n2)c2cccnc21,3.21,> 100,3.27,60.2,3.6,> 100,2.17,6.93,–,–,2.74 µM,> 100,3.07,> 100,6.82,67.6,3.9,> 100,> 100,2.74 µM
C/C(=N\NC(=O)CC(=O)N(C(=O)c1ccc(Cl)cc1)c1ccc(C)cc1)c1ccccc1O,–,> 100,–,> 100,–,> 100,–,> 100,–,–,–,> 100,–,> 100,–,> 100,–,> 100,13.7,–
CCOC(=O)CNc1nnnn1C1OC(CO)C(O)C1O (stereo not given),–,–,–,> 100,–,> 100,–,> 100,–,–,–,> 100,–,> 100,–,> 100,–,> 100,–,–
CC1CC[P+](c2ccccc2)(c2ccccc2)CC1,–,> 100,–,> 100,–,> 100,–,> 100,–,> 100 µM,–,> 100,–,> 100,–,> 100,–,> 100,–,–
O=c1cc(-c2ccccc2)[nH]c2cc(Cl)ccc12,–,4.35,–,> 100,–,21.2,–,0.358,–,0.612 µM,–,52.5,–,14.8,–,> 100,–,–,> 100,–
O=C(O[C@H]1CCN2C[C@H]3C[C@H](CN4C(=O)CCC[C@H]34)[C@@H]2C1)c1ccc(O)cc1,–,> 100,–,> 100,–,> 100,–,> 100,–,–,–,> 100,–,> 100,–,> 100,–,> 100,> 100,–
COC(=O)C(=O)C(C(=O)C(=O)Nc1cc(C)ccc1C)c1nc2ccc(C(=O)c3ccccc3)cc2[nH]c1=O (stereo not given),–,> 100,–,> 100,–,> 100,–,> 100,–,–,–,> 100,–,–,–,> 100,–,–,> 100,–
COc1ccc(CCc2cc(OC)c(O)c(OC)c2)cc1,–,> 100,–,> 100,–,> 100,–,> 100,–,–,–,> 100,–,> 100,–,> 100,–,> 100,> 100,–
CCCCCCCCCCCCCB(O)O,–,> 100,–,> 100,–,–,–,> 100,–,> 100 µM and 42.5 µM,> 100 µM and 35.8 µM,> 100,–,> 100,–,> 100,–,> 100,> 100,> 100 µM and 49.3 µM
CC1=C([Se]CC(OC(=O)[C@@H](CO)NC(=O)OC(C)(C)C)C(=O)NCCCCCC(=O)OCc2ccccc2)C(=O)c2ccccc2C1=O (stereo not given in full),–,–,1.79,3.3,–,–,2.02,3.5,2.03,4.82 µM,1.53 µM,2.9,0.462,1.61,2.26,4.08,1.79,3.19,2.86,1.53 µM
O=C(O)CCC(C(=O)O)N1C(=O)C2C3CCC(C3)C2C1=O (stereo not given),–,> 100,–,> 100,–,> 100,–,> 100,–,–,–,> 100,–,> 100,–,> 100,–,> 100,> 100,–

# From PubChem BioAssay (NCI)
